Experimental data: patent US7678390B2, “Carbon monoxide as a biomarker and therapeutic agent” (priority 1999, dated 2010)

Test system: rats exposed to hyperoxia (>98% O2)
Format: in vivo, rat
Description: Animals were exposed to >98% O2 or 98% O2+CO mixtures at a flow rate of 12 liters/min in a 3.70-cubic-foot glass exposure chamber. Animals were supplied food and water during the exposures. CO at a concentration of 1% (10,000 ppm) in compressed air was mixed with >98% O2 in a stainless steel mixing cylinder prior to entering the exposure chamber. By varying the flow rates of CO into the mixing cylinder, concentrations delivered to the exposure chamber were controlled. Because the flow rate was primarily determined by the O2 flow, only the CO flow was changed to generate the different concentrations delivered to the exposure chamber. A carbon monoxide analyzer (Interscan Corporation, Chatsworth, Calif.) was used to measure CO levels continuously in the chamber. Gas samples were taken by the analyzer through a port in the top of the exposure chamber at a rate of 1 liter/min and analyzed by electrochemical detection with a sensitivity of 10 ppm to 600 ppm. CO levels in the chamber were recorded at hourly intervals and there were no changes in chamber CO concentrations once the chamber had equilibrated. O2 concentrations in the chamber were determined using a gas spectrometer.
Lungs were fixed by perfusion with 10% formalin at 20 cm H2O pressure and embedded in paraffin. Lung sections of […] were mounted onto slides pretreated with 3-aminopropylethoxysilane (Digene Diagnostics, Inc., Beltsville, Md.). Slides were baked for 30 min at 60° C. and washed twice in fresh xylene for 5 min to remove the paraffin. The slides were then rehydrated though a series of graded alcohols and then washed in distilled water for 3 min prior to staining with hematoxylin and eosin.
Animals were anesthesized with sodium pentobarbital 24 h after LPS administration or 56 h of hyperoxia exposure. BAL (35 ml/kg) was performed 4 times with PBS (pH 7.4). Cells were pooled from the lavages and centrifuged at 1200 g for 10 min. The supernatant was discarded and cells were resuspended in PBS. Cell counts were performed using a Neubaur hemocytometer. For differential analysis, samples were cytocentrifuged and stained with Diff-Quik. Measurement of Injury Markers Rats were removed at 56 h of hyperoxia and anesthetized with sodium pentobarbital. The pleural effusion was collected by inserting an 18 gauge needle and 10 cc syringe through the diaphragm and withdrawing all fluid present in the pleural cavity. BAL was performed as described above, and the first lavage was centrifuged at 1200 g for 10 min and the supernatant was assayed for the protein albumin as determined by Bromcresol Green Kit (BCG) from Sigma (St. Louis, Mo.). Arterial Blood Oxygen Tension and Carboxyhemoglobin Determination Indwelling catheters were surgically implanted into the carotid arteries of rats anesthetized with 3% v/v isoflurane. Animals were secured in jackets and tethers to allow movement about the cage and access to food and water which were placed inside the exposure chambers. Polyethelene tubing, connected to the catheter and threaded out through an airtight fitting in the lid of the chamber, was used for continuous heparin infusion throughout the exposure (20 U/ml at 0.1 ml/h) to maintain patency of the vessel. At each time point, 1 cc of blood was drawn into a heparinized syringe, sealed and placed on ice until analyzed for oxygen tension. Arterial oxygen tension and carboxyhemoglobin were determined using a BG3 Instrumentation Laboratory Blood Gas Analyzer and Co-oximeter (Boston, Mass.). […]

[1] = hyperoxia in the presence of CO

## [C-]#[O+] [CO, carbon monoxide]
56 h hyperoxia in the presence of CO (250 ppm)
  neutrophil influx into the airways (BAL): significant reductions
56 h hyperoxia in the presence of CO (250 ppm), TUNEL/DAPI
  lung apoptotic index: 1.8%±0.12
56 h hyperoxia in the presence of a low concentration of CO
  volume of pleural effusion: marked inhibition
[1]
  lung histology: completely normal macroscopically and microscopically
  protein accumulation into the airways (bronchoalveolar lavage): significantly lower levels
